These are literature values, as cited in patent US20100047451A1, “ACTINIC-RADIATION CURABLE INK COMPOSITION, INK SET, INK JET PRINTING APPARATUS, AND INK JET RECORDING METHOD USING ACTINIC-RADIATION CURABLE INK COMPOSITION” (SEIKO EPSON CORPORATION, priority 2008, published 2010).

For data set [1] the following is noted: primary irritation index.
The conditions of data set [2]: measurements at 25° C.

On to `C=C(C)C(=O)OCC(CC)(COC(=O)C(=C)C)COC(=O)C(=C)C` [Trimethylolpropane trimethacrylate], for which, in data set [1], the PII is 0.8. Regarding `C=C(C)C(=O)OCCOCCOC(=O)C(=C)C` [Diethylene glycol dimethacrylate], in data set [1], the PII was 0.5. Consider `C=CC(=O)OCCCCCCCCCOC(=O)C=C` [1,9-Nonanediol diacrylate], for which, in data set [1], the PII was 2.0. With `C=CC(=O)OCCOCCOC` [Methoxy diethylene glycol monoacrylate], the PII in data set [1] is listed as 0.7. Regarding `C=CC(=O)OCCOc1ccccc1` [Phenoxyethyl acrylate], the PII in data set [1] is 1.7. Turning to “Trimethylolpropane PO-modified triacrylate”, in data set [1], the PII is on record as 0.1.

As to `C=CC(=O)N1CCOCC1` [Acryloylmorpholine], in data set [1], the PII was 0.5.

As to `C=CC(=O)OCC(C)OCC(C)OCC(C)OC(=O)C=C` (stereo not drawn) [Tripropylene glycol diacrylate], the PII in data set [1] is recorded as 1.6. Take `C=C(C)C(=O)OCC(O)COC(=O)C(=C)C` [2-Hydroxy-1,3-dimethacryloxypropane]: the PII in data set [1] is reported as 0.6.

For the compound `C=C(C)C(=O)OCCOC(=O)C(=C)C` [Ethylene glycol dimethacrylate], the PII in data set [1] is 0.6. For `C=CC(=O)O[C@@H]1C[C@H]2CC[C@]1(C)C2(C)C` [Isobornyl acrylate], the PII in data set [1] was 0.6. For the compound Glycerol PO-modified triacrylate, in data set [1], the PII is listed as 0.8. As for `C=CC(=O)OCC1COC(C)(CC(C)C)O1` (stereo not drawn) [(2-Methyl-2-isobutyl-1,3-dioxolan-4-yl)methyl acrylate], the PII in data set [1] is 1.0. Take Polyethylene glycol #400 diacrylate: the PII in data set [1] is 0.4. Regarding Trimethylolpropane-modified triacrylate, in data set [1], the PII was 1.5. For the compound `C=C(C)C(=O)OCC(C)(C)COC(=O)C(=C)C` [Neopentyl glycol dimethacrylate], the PII in data set [1] is listed as 0.0. In the case of `C=CC(=O)OCC1COC(C)(CC)O1` (stereo not drawn) [(2-Methyl-2-ethyl-1,3-dioxolan-4-yl)methyl acrylate], the Viscosity in data set [2] was 5.1 mPa · s. In addition, in data set [1], the PII is 1.3. As for `C=C(C)C(=O)OCCCCCCOC(=O)C(=C)C` [1,6-Hexanediol dimethacrylate], in data set [1], the PII is 0.5. As to Polyethylene glycol 200 dimethacrylate, in data set [2], the Viscosity is 14 mPa · s. Moreover, the PII in data set [1] was 0.5.
